Source: patent US20220387630A1, “METHOD FOR SCREENING ANTICANCER AGENT AND COMBINATION DRUG OF KINASE INHIBITORS FOR TREATMENT OF PANCREATIC CANCER” (National University Corporation Hokkaido University, priority 2020, published 2022)

Columns and labels:
[1] = tested on: MIA PaCa-2 cells; assay: MTS cell viability assay in human pancreatic cancer cells; assay type: cell-based; details: in combination with Trametinib, 72 hours
Protocol: Example 4 Evaluation of efficacy of kinase inhibitor with use of human pancreatic cancer cells Human pancreatic cancer cell line (MIA PaCa-2) was purchased from National Institute of RIKEN BioResource Research Center, and cultured in Dulbecco's Modified Eagle's Medium (Nacalai tesque) supplemented with 10% fetal bovine serum (Gibco) and 1% penicillin-streptomycin (Nacalai tesque) at 37° C. in the presence of 5% CO2.
Trametinib (DMSO only, 1 μM, 300 μM), Adavosertib (300 μM, 1 mM), AD80 (30 μM, 3 mM), Alisertib (30 μM, 1 mM) and BI-831266 (3 μM, 3 mM) was each prepared and diluted to 100-fold in the medium to produce a drug solution.
MIA PaCa-2 cells were seeded into a 96-well plate at 1000 cells/well (in 100 μL medium). After culturing for one day, 10 μL of the drug solution of Trametinib alone or Trametinib combined with another kinase inhibitor was added to the cells in each well on the 96-well plate (0.2% final concentration of DMSO). Each combination was tested in five wells. After the addition of the drug solution, the cells were cultured at 37° C. for 72 hours in the presence of 5% CO2, and then the cell viability was measured using MTS assay (CellTiter 96 (registered trademark), Promega). The viability is expressed as a ratio to that of a control (solvent only).

[2] = tested on: 4-hit flies (non-GFP); assay: Efficacy of kinase inhibitors on 4-hit fly survival rate (drug food); assay type: in vivo, Drosophila; details: used alone; 1 M Trametinib in food; reared at 25° C. for 13 days
Protocol: Trametinib (MEK inhibitor), Adavosertib (referred also to as MK-1775, WEE1 inhibitor), AD80 (FRK inhibitor), Y-27632 (ROCK inhibitor), Alisertib (AURKA inhibitor, the above all purchased from MedChem Express), BI-831266 (AURKB inhibitor, obtained from Boehringer Ingelheim) was each dissolved in DMSO (SIGMA) and stored at −20° C.
Agar (Wako), brewers' yeast (MP Bio), yeast extract (Sigma Aldrich), bacto casitone (BD), sucrose (Wako), glucose (Wako), MgCl2 (Wako) CaCl2 (Wako), Propionic acid (Wako), and Mold inhibitor (10% Methyl-4-hydroxy Benzoate in 95% Ethanol; Wako) were dissolved in ultrapure water to prepare a standard food. While kept at 50° C., the kinase inhibitor (Trametinib alone or a combination of Trametinib and another kinase inhibitor) dissolved in DMSO was added for mixing. The resulting solution was cooled to obtain a drug food. The final concentrations of the compounds in the food were […] for Trametinib, 100 μM for Adavosertib, 50 μM for AD80, 10 μM for Y-27632, and 100 μM for BI-831266.
The UAS-Ras^G12D, UAS-p53^shRNA, UAS-CycE, UAS-Med^shRNA fly produced in Example 1 was mated with a Ser-gal4 fly (Bloomington Drosophila Stock Center). […] The eggs were reared at 25° C. for 13 days, and survival rate of 4-hit flies (non-GFP) reared on each food was calculated by dividing the number of eclosed pupae by the total number of pupae.

Row | Structure (SMILES) | cell viability compared to that of Trametinib used alone [1] | increase of survival rate of 4-hit flies (non-GFP) [2] [%]
1 | C=CCn1c(=O)c2cnc(Nc3ccc(N4CCN(C)CC4)cc3)nc2n1-c1cccc(C(C)(C)O)n1 [Adavosertib] | greatly reduced the cell viability | –
2 | COc1cc(Nc2ncc3c(n2)-c2ccc(Cl)cc2C(c2c(F)cccc2OC)=NC3)ccc1C(=O)O [Alisertib] | greatly reduced the cell viability | –
3 | CC(=O)Nc1cccc(-n2c(=O)n(C3CC3)c(=O)c3c(Nc4ccc(I)cc4F)n(C)c(=O)c(C)c32)c1 [Trametinib] | – | 20
4 | CC(C)n1nc(-c2ccc(NC(=O)Nc3cc(C(F)(F)F)ccc3F)cc2)c2c(N)ncnc21 [AD80] | greatly reduced the cell viability | –
